From PMC12693419, “Design, Synthesis, Biological Evaluation, and In Silico Studies of Novel Multitarget Cinnamic Acid Hybrids” (Molecules, 2025)
pIC50: −log10 of the molar value.

Key:
[1] = target: T1, soybean lipoxygenase isoenzyme-1 (SLOX-1) (Glycine max, UniProt P08170); experiment: In vitro inhibition of soybean lipoxygenase; type: biochemical; conditions: for LOX Inh. IC50: pH 9.0; for pIC50: pH 9.0, read-out: LOX Inh. IC50
T1 construct: purchased Merck and Sigma-Aldrich
T1 sequence (P08170 1-839): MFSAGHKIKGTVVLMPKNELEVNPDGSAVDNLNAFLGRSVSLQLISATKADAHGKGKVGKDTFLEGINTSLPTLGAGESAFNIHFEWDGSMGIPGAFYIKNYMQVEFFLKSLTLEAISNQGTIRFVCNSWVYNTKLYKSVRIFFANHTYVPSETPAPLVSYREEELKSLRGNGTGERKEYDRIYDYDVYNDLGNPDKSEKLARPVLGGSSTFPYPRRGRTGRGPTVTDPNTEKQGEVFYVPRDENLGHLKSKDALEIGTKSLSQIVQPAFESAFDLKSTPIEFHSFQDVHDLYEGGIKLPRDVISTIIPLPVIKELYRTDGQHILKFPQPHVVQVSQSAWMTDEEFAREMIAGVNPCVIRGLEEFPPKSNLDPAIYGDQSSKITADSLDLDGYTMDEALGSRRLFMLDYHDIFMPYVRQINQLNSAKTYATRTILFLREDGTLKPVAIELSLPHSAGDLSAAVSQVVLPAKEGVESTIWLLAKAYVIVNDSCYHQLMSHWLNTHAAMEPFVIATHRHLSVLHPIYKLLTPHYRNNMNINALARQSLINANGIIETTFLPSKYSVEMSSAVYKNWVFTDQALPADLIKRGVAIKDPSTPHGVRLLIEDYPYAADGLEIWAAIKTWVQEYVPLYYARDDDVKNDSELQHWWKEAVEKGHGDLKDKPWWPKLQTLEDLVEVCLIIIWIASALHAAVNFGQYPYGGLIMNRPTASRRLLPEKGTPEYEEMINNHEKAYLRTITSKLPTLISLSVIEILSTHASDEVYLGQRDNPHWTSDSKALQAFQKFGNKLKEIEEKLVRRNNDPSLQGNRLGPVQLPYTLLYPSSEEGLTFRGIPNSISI
Procedure: In vitro anti-LOX activities were evaluated using soybean lipoxygenase isoenzyme-1 (SLOX-1), a commonly used model for mammalian LOXs.
An in vitro study was conducted following a previously reported method. The tested compounds were dissolved in DMSO (100 µM) and incubated at room temperature with 0.1 mL of sodium linoleate as the substrate and 0.2 mL of soybean lipoxygenase solution in Tris-HCl buffer (pH 9.0).

[2] = In vitro determination of NO release with Griess reagent; conditions: 100 μM, L-cysteine, pH 7.4, 37 °C, 60 min
Source text: This assay evaluates the ability of nitrate esters to release nitric oxide (NO). First, sodium nitroprusside (SNP) reacts with the thiol compound, cysteine, which serves as a reducing agent (Scheme 5). The thiol donates electrons, facilitating the breakdown of the nitroprusside complex. Afterwards, the reaction leads to the formation of intermediate complexes, such as nitrosothiol species and the decomposition of these intermediates results in the release of nitric oxide (NO). According to the literature, measurements are conducted both in the presence and absence of the thiol agent, cysteine. No significant difference was observed between the two experimental conditions, and the results were reproducible. Sodium nitroprusside (SNP) was used as the reference compound [65].
The compounds (from a 10 mM stock solution in DMSO, final concentration 100 μM) are added (20 μL) to each test tube. Then, 2 mL of phosphate buffer solution (pH 7.4) is added. L-cysteine, used as the thiol agent, is added to the mixture at a final concentration of 0.5 mM. The solution is incubated at 37 °C for 60 min, after which 1 mL is removed and mixed with 250 μL of Griess reagent (4 g sulfanilamide, 0.2 g N-(1-naphthyl)-ethylenediamine dihydrochloride, and 10 mL of H3PO4 solution, final volume adjusted to 100 mL). The mixture is allowed to stand for 10 min at room temperature, and the absorbance of the produced compound is measured at 540 nm. Sodium nitroprusside (SNP) is used as the reference compound. The results are presented as the release of NO2^− (% NO2^− (mol/mol)) induced by the compounds in the presence of L-cysteine (Table 6).

[3] = target: T2, bovine serum albumin (Bos taurus, UniProt P02769); experiment: In vitro inhibition of albumin denaturation; conditions: heat denaturation, 60 °C 10 min
T2 construct: bovine serum albumin solution (fraction V); purchased Merck and Sigma-Aldrich; host or cells: bovine serum (fraction V)
Procedure: The ability of a compound to inhibit the thermal denaturation of albumin is considered an indicator of anti-inflammatory activity. Heat exposure simulates conditions of cellular stress or inflammation, during which protein and tissue damage occur. Certain substances can protect proteins from denaturation upon heating by stabilizing their structure and preventing aggregation and precipitation.
Inhibition of albumin denaturation was measured following the reported method. In a test tube, 1 mL of bovine serum albumin solution (fraction V, 1% w/v in phosphate buffer, pH 7.4) and 100 μL of the test compound solution were added sequentially. The mixture was incubated at 37 °C for 15 min, followed by heating at 60 °C for 10 min. After cooling to room temperature, the absorbance was measured at 660 nm. DMSO was used as the blank, and the results were compared to acetylsalicylic acid, which served as the reference compound (Table 6).

[4] = In vitro inhibition of linoleic acid lipid peroxidation (AAPH); conditions: 100 μM; anti-lipid peroxidation
Source text: In the present study, the aim was to evaluate the anti-lipid peroxidation activities of the synthesized compounds 5a–i, 6a–i, 9a–i, and 11 and compare their efficacy to that of Trolox, a well-known antioxidant. Using the water-soluble compound 2,2′-azobis(2-amidinopropane) hydrochloride (AAPH), peroxyl radicals are generated through spontaneous thermal decomposition in vitro. This experimental setup imitated the lipid peroxidation processes occurring in cells due to radical activity allowing the investigation of the effectiveness of the tested compounds under conditions resembling cellular oxidative stress.
An in vitro assay was performed following previously established protocols. The compound 2,2′-Azobis(2-methylpropionamidine) dihydrochloride (AAPH) was used as a controlled source of thermally generated alkylperoxy free radicals. The formation of conjugated diene hydroperoxides through the oxidation of sodium linoleate in an aqueous dispersion at 37 °C was measured by monitoring absorbance at 234 nm. The results were compared with the reference compound, Trolox (93%) (Table 6).

[5] = target: T3, ovine COX-2 (Ovis aries, UniProt P79208); experiment: In vitro inhibition of ovine cyclooxygenase-2
T3 sequence (P79208 17-603): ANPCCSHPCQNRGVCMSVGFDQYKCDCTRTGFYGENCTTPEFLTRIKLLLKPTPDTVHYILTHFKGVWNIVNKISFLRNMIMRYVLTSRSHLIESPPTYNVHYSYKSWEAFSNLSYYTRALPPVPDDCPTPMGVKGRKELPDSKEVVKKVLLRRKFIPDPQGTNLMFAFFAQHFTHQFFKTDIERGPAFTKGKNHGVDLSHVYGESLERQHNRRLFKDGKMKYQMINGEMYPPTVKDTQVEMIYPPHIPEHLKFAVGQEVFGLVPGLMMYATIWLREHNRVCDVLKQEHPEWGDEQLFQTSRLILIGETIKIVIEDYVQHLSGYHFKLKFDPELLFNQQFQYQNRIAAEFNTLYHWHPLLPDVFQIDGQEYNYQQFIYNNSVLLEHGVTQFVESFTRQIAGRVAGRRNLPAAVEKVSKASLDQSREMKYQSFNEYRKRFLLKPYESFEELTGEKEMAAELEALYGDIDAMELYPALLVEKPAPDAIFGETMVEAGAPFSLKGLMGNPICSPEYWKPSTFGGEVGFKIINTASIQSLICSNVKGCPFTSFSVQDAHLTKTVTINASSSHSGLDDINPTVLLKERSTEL
Procedure: In order to prevent this in the in vitro experiment used for testing COX inhibition activity of the new molecules, a co-substrate like N,N,N′,N′-tetramethyl-p-phenylenediamine (TMPD) is included, as it undergoes co-oxidation by PGG2. The oxidized TMPD has a maximum absorbance at 590 nm. […] To ensure maximum enzyme activity, heme is added to the reaction mixture during the in vitro assay for ovine COX-2 inhibition and COX-1 inhibition [63].
The in vitro COX-2 inhibitory activity was assessed using arachidonic acid (AA) as a substrate and N,N,N′,N′-tetramethyl-p-phenylenediamine (TMPD) as a co-substrate in a Tris-HCl buffer (pH 8.5), following the reported method [89]. To the test tube, 10 µL of the compound dissolved in DMSO was added to a mixture containing 730 µL of Tris-HCl buffer (pH 8.5), 50 µL of heme, 10 µL of COX-2 enzyme, and 100 µL of TMPD. The absorbance was measured at 590 nm. […] A blank determination was conducted as a negative control.

T2 sequence (P02769 25-607): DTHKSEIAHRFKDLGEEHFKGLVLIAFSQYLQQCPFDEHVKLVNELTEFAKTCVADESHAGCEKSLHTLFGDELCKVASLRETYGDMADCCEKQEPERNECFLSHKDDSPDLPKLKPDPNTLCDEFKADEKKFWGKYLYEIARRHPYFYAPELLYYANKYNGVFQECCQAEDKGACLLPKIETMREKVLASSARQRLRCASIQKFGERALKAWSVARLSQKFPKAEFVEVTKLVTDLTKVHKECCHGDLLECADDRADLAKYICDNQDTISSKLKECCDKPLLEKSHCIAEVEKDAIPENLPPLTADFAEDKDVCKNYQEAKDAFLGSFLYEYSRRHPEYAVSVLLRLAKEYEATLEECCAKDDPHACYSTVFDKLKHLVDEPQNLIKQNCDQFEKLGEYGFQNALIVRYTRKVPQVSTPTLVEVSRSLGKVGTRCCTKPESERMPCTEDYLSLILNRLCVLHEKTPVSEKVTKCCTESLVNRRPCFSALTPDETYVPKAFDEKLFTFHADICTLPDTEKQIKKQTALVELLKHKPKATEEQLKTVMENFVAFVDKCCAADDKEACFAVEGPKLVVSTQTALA

LOX Inh. IC50 [1]	Albumin (inhibition of albumin denaturation) [3]	COX-2 Inh. IC50 [5]	pIC50 [1]	Compound	%NO2^− Release mol/mol at 100 μΜ [2]	AAPH Inh. at 100 μΜ [4]
no	63%	no	–	C/C(=N\O)c1ccc(NC(=O)COC(=O)/C=C/c2cc3ccccc3s2)cc1 [Compound 6e, 2-((4-((E)-1-(Hydroxyimino)ethyl)phenyl)amino)-2-oxoethyl (E)-3-(benzo[b]thiophen-2-yl)acrylate]	1.1%	no
no	–	–	–	CC(=O)c1ccc(NC(=O)COC(=O)/C=C/c2ccco2)cc1 [Compound 5d, 2-((4-Acetylphenyl)amino)-2-oxoethyl (E)-3-(furan-2-yl)acrylate]	–	no
–	no	no	4.15	O=C(/C=C/c1cc2ccccc2o1)OCc1c(-c2ccccc2)no[n+]1[O-] [Compound 9f, (E)-3-(((3-(Benzofuran-2-yl)acryloyl)oxy)methyl)-4-phenyl-1,2,5-oxadiazole 2-oxide]	no	97%
–	–	–	4.24	CC(=O)c1ccc(NC(=O)COC(=O)/C=C/c2cccc3ccccc23)cc1 [Compound 5b, 2-((4-Acetylphenyl)amino)-2-oxoethyl (E)-3-(naphthalen-1-yl)acrylate]	–	inactive and no
–	no	no	5.46	O=C(C=Cc1ccccc1)OCc1c(-c2ccccc2)no[n+]1[O-] [Compound 9a, 3-((Cinnamoyloxy)methyl)-4-phenyl-1,2,5-oxadiazole 2-oxide]	20%	91.6%
no	–	–	–	CC(=O)c1ccc(NC(=O)COC(=O)/C=C/c2cccs2)cc1 [Compound 5c, 2-((4-Acetylphenyl)amino)-2-oxoethyl (E)-3-(thiophen-2-yl)acrylate]	–	29%
–	–	–	4.10	CC(=O)c1ccc(NC(=O)COC(=O)/C=C/c2cc3ccccc3o2)cc1 [Compound 5f, 2-((4-Acetylphenyl)amino)-2-oxoethyl (E)-3-(benzofuran-2-yl)acrylate]	–	39%
–	31%	–	–	CC(=O)Oc1ccccc1C(=O)O [Acetylsalicylic acid, acetylsalicylic acid, reference compound]	–	–
no	–	–	–	CC(=O)c1ccc(NC(=O)COC(=O)/C(=C/c2ccccc2)c2ccccc2)cc1 [Compound 5g, 2-((4-Acetylphenyl)amino)-2-oxoethyl (E)-2,3-diphenylacrylate]	–	94.7%
no	–	–	–	CC(=O)c1ccc(NC(=O)COC(=O)/C(=C/c2cccs2)c2ccccc2)cc1 [Compound 5i, 2-((4-Acetylphenyl)amino)-2-oxoethyl (E)-2-phenyl-3-(thiophen-2-yl)acrylate]	–	77%
–	no	–	4.36	C/C(=N\O)c1ccc(NC(=O)COC(=O)/C(=C/c2ccccc2)c2ccccc2)cc1 [Compound 6g, 2-((4-((E)-1-(Hydroxyimino)ethyl)phenyl)amino)-2-oxoethyl (E)-2,3-diphenylacrylate]	no activity and no	89%
no	no	no	–	O=C(/C=C/c1cccs1)OCc1c(-c2ccccc2)no[n+]1[O-] [Compound 9c, (E)-4-Phenyl-3-(((3-(thiophen-2-yl)acryloyl)oxy)methyl)-1,2,5-oxadiazole 2-oxide]	1.2%	73.3%
no	–	–	–	CC(=O)c1ccc(NC(=O)COC(=O)C=Cc2ccccc2)cc1 [Compound 5a, 2-((4-Acetylphenyl)amino)-2-oxoethyl Cinnamate]	–	31.9%
–	–	–	–	O=C(O)/C=C/c1ccccc1 [Cinnamic acid]	–	78%
–	no	–	4.20	C/C(=N\O)c1ccc(NC(=O)COC(=O)/C(=C/c2cccc3ccccc23)c2ccccc2)cc1 [Compound 6h, 2-((4-((E)-1-(Hydroxyimino)ethyl)phenyl)amino)-2-oxoethyl (E)-3-(naphthalen-1-yl)-2-phenylacrylate]	no activity and no	97.7%
–	–	–	–	Cc1c(C)c2c(c(C)c1O)CCC(C)(C(=O)O)O2 (stereo not shown) [Trolox, reference compound]	–	93%
no	–	–	–	CC(=O)c1ccc(NC(=O)COC(=O)/C=C/c2cc3ccccc3s2)cc1 [Compound 5e, 2-((4-Acetylphenyl)amino)-2-oxoethyl (E)-3-(benzo[b]thiophen-2-yl)acrylate]	–	no
–	–	–	4.48	CC(=O)c1ccc(NC(=O)COC(=O)/C(=C/c2cccc3ccccc23)c2ccccc2)cc1 [Compound 5h, 2-((4-Acetylphenyl)amino)-2-oxoethyl (E)-3-(naphthalen-1-yl)-2-phenylacrylate]	–	75.8%
